Source: the supplement of paper PMC10307832

Key:
Test in all cases: relative viability (nuclei count vs DMSO), 5 days (fraction); higher = more cells survive
[1] = system: NCI-H1355
Summary of the method: (§1)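 The day after seeding in 1536-well plates, lung cancer cell lines were treated by pin tool with a single drug, or with a fixed anchor-drug dose together with five library-drug doses (not always all listed) in √10 steps. After 5 days, a combined fix-and-stain solution (final 0.05% Triton X-100, 1% formaldehyde, 1 ug/ml Hoechst) was added. Nuclei counted on 4× images gave relative viability as treated counts over vehicle counts, reported as the median of duplicate plates.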

[2] = system: NCI-H1437
Summary of the method: as §1

[3] = system: NCI-H441
Summary of the method: as §1

[4] = system: LOU-NH91
Summary of the method: as §1

[5] = system: CAL-12T
Summary of the method: as §1

[6] = system: NCI-H2023
Summary of the method: as §1

[7] = system: NCI-H460
Summary of the method: as §1

[8] = system: HCC-44
Summary of the method: as §1

[9] = system: NCI-H358
Summary of the method: as §1

[10] = system: NCI-H1650
Summary of the method: as §1

[11] = system: NCI-H1651
Summary of the method: as §1

[12] = system: NCI-H1975
Summary of the method: as §1

[13] = system: NCI-H838
Summary of the method: as §1

[14] = system: NCI-H2342
Summary of the method: as §1

[15] = system: NCI-H1395
Summary of the method: as §1

[16] = system: LCLC-103H
Summary of the method: as §1

[17] = system: NCI-H2085
Summary of the method: as §1

[18] = system: NCI-H1755
Summary of the method: as §1

[19] = system: HCC-15
Summary of the method: as §1

[20] = system: HCC-366
Summary of the method: as §1

[21] = system: EKVX
Summary of the method: as §1

[22] = system: NCI-H1734
Summary of the method: as §1

[23] = system: BEN
Summary of the method: as §1

CC(C)Oc1cc(Nc2nc(N[C@@H](C)c3ccc(F)cn3)ncc2Cl)n[nH]1 [AZ23] + Cc1cc(Nc2cc(N3CCN(C)CC3)nc(Sc3ccc(NC(=O)C4CC4)cc3)n2)n[nH]1 [Tozasertib] (partner 0.1 µM)
relative viability ([1]; first compound 0.01 µM): 0.507 | relative viability ([1]; first compound 0.03162 µM): 0.609 | relative viability ([1]; first compound 0.3162 µM): 0.597 | relative viability ([2]; first compound 0.01 µM): 0.434 | relative viability ([2]; first compound 0.03162 µM): 0.449 | relative viability ([2]; first compound 0.3162 µM): 0.413 | relative viability ([3]; first compound 0.01 µM): 0.813 | relative viability ([3]; first compound 0.03162 µM): 0.782 | relative viability ([3]; first compound 0.3162 µM): 0.609 | relative viability ([4]; first compound 0.01 µM): 0.641 | relative viability ([4]; first compound 0.03162 µM): 0.72 | relative viability ([4]; first compound 0.3162 µM): 0.644 | relative viability ([5]; first compound 0.03162 µM): 0.342 | relative viability ([5]; first compound 0.3162 µM): 0.241 | relative viability ([6]; first compound 0.03162 µM): 0.457 | relative viability ([6]; first compound 0.3162 µM): 0.46 | relative viability ([7]; first compound 0.01 µM): 0.184 | relative viability ([7]; first compound 0.03162 µM): 0.518 | relative viability ([7]; first compound 0.3162 µM): 0.566 | relative viability ([8]; first compound 0.01 µM): 0.991 | relative viability ([8]; first compound 0.03162 µM): 0.841 | relative viability ([8]; first compound 0.3162 µM): 1.15 | relative viability ([9]; first compound 0.01 µM): 0.101 | relative viability ([9]; first compound 0.03162 µM): 0.114 | relative viability ([9]; first compound 0.3162 µM): 0.107 | relative viability ([10]; first compound 0.03162 µM): 0.433 | relative viability ([10]; first compound 0.3162 µM): 0.45 | relative viability ([11]; first compound 0.03162 µM): 0.885 | relative viability ([11]; first compound 0.3162 µM): 0.71 | relative viability ([12]; first compound 0.01 µM): 0.836 | relative viability ([12]; first compound 0.03162 µM): 0.977 | relative viability ([12]; first compound 0.3162 µM): 0.744 | relative viability ([13]; first compound 0.01 µM): 0.267 | relative viability ([13]; first compound 0.03162 µM): 0.301 | relative viability ([13]; first compound 0.3162 µM): 0.274 | relative viability ([14]; first compound 0.01 µM): 0.482 | relative viability ([14]; first compound 0.03162 µM): 0.483 | relative viability ([14]; first compound 0.3162 µM): 0.455 | relative viability ([15]; first compound 0.03162 µM): 0.812 | relative viability ([15]; first compound 0.3162 µM): 0.815 | relative viability ([16]; first compound 0.01 µM): 0.467 | relative viability ([16]; first compound 0.03162 µM): 0.491 | relative viability ([16]; first compound 0.3162 µM): 0.559 | relative viability ([17]; first compound 0.01 µM): 0.799 | relative viability ([17]; first compound 0.03162 µM): 0.855 | relative viability ([17]; first compound 0.3162 µM): 0.803 | relative viability ([18]; first compound 0.01 µM): 0.556 | relative viability ([18]; first compound 0.03162 µM): 0.613 | relative viability ([18]; first compound 0.3162 µM): 0.664 | relative viability ([19]; first compound 0.01 µM): 0.513 | relative viability ([19]; first compound 0.03162 µM): 0.498 | relative viability ([19]; first compound 0.3162 µM): 0.631 | relative viability ([20]; first compound 0.01 µM): 0.114 | relative viability ([20]; first compound 0.03162 µM): 0.152 | relative viability ([20]; first compound 0.3162 µM): 0.234 | relative viability ([21]; first compound 0.01 µM): 0.471 | relative viability ([21]; first compound 0.03162 µM): 0.458 | relative viability ([21]; first compound 0.3162 µM): 0.407 | relative viability ([22]; first compound 0.01 µM): 0.252 | relative viability ([22]; first compound 0.03162 µM): 0.289 | relative viability ([22]; first compound 0.3162 µM): 0.276 | relative viability ([23]; first compound 0.01 µM): 0.483 | relative viability ([23]; first compound 0.03162 µM): 0.544 | relative viability ([23]; first compound 0.3162 µM): 0.527
